# Assay results reported in PMC7026418, “The kinase polypharmacology landscape of clinical PARP inhibitors” (Scientific Reports, 2020).
# Read-outs that look alike come from different tables or passages of the source.
# Assays:
# Test in all cases: biochemical
# Parameters in all cases: DiscoveRx KINOMEscan active site-directed competition binding; percent of control kinase bound to immobilised ligand
# BIKE = target: T1, BIKE (Homo sapiens, UniProt Q9NSY1)
# T1 construct: gene BMP2K
# EPHA4 = EPHA4 (Homo sapiens, UniProt P54764)
# YANK3 = target: T2, YANK3 (Homo sapiens, UniProt Q86UX6)
# T2 construct: gene STK32C
# EGFR(T790M) = EGFR(T790M) (Homo sapiens, UniProt P00533, T790M)
# SRPK3 = SRPK3 (Homo sapiens, UniProt Q9UPE1)
# CIT = CIT (Homo sapiens, UniProt O14578)
# RIPK4 = target: T3, RIPK4 (Homo sapiens, UniProt P57078)
# T3 sequence (P57078 1-832): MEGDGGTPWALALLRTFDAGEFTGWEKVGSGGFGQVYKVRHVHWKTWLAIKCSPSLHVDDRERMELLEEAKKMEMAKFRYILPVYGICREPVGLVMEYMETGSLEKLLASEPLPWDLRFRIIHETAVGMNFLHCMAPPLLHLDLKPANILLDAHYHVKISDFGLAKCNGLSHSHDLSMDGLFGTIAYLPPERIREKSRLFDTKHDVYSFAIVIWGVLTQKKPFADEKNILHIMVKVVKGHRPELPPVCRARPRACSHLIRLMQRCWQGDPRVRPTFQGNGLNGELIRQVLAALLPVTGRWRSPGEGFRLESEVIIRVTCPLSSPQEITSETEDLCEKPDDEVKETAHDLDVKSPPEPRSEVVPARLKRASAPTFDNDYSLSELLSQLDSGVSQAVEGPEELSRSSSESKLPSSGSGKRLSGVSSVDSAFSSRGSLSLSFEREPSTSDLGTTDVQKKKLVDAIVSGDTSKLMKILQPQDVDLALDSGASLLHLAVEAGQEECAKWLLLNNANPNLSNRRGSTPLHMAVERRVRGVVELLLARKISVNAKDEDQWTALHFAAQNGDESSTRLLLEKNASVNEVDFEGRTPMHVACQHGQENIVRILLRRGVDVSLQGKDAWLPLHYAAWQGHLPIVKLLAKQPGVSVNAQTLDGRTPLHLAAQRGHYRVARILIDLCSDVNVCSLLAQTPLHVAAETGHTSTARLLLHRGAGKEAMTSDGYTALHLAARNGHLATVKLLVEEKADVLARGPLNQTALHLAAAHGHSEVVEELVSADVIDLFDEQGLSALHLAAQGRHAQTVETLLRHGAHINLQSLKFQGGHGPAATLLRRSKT
# FLT3(R834Q) = target: T4, FLT3(R834Q) (Homo sapiens, UniProt P36888, R834Q)
# T4 sequence (P36888 1-993 R834Q): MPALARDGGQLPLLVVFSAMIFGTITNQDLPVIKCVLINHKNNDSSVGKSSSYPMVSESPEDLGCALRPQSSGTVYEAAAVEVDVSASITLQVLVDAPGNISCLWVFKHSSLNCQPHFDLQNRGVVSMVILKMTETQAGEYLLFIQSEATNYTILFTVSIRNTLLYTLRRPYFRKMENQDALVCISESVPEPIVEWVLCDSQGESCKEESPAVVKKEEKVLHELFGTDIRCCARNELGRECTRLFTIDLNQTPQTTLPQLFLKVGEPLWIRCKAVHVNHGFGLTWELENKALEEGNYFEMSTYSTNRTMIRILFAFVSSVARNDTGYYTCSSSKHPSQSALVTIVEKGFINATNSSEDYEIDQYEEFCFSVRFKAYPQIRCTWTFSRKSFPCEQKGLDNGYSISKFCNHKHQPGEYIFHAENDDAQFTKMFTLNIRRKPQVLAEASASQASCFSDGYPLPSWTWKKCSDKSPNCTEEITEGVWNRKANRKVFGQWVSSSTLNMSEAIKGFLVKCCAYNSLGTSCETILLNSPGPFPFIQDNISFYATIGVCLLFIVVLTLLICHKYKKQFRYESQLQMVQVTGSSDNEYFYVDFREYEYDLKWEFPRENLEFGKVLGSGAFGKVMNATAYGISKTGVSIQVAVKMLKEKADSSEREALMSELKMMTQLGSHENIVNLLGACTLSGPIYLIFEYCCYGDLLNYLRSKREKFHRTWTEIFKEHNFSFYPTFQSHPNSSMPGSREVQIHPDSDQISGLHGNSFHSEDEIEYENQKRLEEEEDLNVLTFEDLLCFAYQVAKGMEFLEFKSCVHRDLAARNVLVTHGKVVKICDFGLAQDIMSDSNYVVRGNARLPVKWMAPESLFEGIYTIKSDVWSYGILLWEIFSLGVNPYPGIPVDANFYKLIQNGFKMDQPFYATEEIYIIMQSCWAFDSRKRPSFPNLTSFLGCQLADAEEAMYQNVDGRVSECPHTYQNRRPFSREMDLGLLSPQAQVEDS
# PIKFYVE = PIKFYVE (Homo sapiens, UniProt Q9Y2I7)
# [1] = target: T5, RSK1(Kin.Dom.2-C-terminal) (Homo sapiens, UniProt Q15418)
# T5 construct: gene RPS6KA1; Kin.Dom.2-C-terminal
# ALK(L1196M) = ALK(L1196M) (Homo sapiens, UniProt Q9UM73, L1196M)
# [2] = read-out: Talazoparib (BMN 673) / %Ctrl @ 10000nM
# [3] = read-out: Olaparib / %Ctrl @ 10000nM
# [4] = read-out: Niraparib (MK-4827) / %Ctrl @ 10000nM
# [5] = read-out: Rucaparib / %Ctrl @ 10000nM, binding competition, % of control
# ALK(L1196M), sequence (Q9UM73 whole entry L1196M): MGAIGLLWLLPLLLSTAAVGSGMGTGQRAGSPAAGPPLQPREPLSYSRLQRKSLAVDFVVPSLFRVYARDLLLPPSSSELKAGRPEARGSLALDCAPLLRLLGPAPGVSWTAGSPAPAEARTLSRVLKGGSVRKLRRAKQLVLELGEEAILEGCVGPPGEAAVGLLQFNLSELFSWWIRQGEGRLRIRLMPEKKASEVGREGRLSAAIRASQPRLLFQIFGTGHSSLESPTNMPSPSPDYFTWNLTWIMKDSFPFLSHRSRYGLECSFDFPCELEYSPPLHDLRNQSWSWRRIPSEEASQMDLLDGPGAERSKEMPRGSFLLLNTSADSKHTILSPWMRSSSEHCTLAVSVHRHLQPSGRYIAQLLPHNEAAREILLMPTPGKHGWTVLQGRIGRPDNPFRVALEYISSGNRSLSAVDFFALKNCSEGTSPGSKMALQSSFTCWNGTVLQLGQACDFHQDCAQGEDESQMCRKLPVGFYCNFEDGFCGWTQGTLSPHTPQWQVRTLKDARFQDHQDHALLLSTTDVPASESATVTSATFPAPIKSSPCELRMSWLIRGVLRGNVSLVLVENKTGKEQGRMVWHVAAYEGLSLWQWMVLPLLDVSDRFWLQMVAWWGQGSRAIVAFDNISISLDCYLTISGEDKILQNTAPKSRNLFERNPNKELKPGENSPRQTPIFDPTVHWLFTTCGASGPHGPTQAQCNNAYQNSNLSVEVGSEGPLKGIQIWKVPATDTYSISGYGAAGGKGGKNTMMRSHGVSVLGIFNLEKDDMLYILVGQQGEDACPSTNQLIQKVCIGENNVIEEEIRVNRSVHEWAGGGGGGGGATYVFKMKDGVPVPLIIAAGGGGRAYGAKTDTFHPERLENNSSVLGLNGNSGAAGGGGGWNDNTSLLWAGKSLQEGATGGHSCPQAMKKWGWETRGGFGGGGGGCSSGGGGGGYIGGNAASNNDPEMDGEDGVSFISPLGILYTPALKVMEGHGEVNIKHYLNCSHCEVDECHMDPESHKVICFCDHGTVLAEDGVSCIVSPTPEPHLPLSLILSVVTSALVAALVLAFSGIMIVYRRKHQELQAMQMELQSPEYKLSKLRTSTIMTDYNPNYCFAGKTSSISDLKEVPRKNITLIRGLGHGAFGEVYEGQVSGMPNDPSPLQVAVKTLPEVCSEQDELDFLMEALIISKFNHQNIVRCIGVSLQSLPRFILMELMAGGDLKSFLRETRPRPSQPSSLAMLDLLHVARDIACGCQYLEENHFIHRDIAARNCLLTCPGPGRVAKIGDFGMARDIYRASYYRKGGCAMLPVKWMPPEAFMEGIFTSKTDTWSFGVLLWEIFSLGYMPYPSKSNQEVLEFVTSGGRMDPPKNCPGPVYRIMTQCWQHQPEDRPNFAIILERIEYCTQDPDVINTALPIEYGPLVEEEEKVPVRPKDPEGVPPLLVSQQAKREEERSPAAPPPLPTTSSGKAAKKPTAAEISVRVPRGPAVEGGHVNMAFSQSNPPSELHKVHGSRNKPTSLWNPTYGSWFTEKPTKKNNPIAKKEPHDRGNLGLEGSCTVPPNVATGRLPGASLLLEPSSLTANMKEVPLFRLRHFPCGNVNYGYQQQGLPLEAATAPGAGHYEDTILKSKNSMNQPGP
# T2 sequence (Q86UX6 whole entry): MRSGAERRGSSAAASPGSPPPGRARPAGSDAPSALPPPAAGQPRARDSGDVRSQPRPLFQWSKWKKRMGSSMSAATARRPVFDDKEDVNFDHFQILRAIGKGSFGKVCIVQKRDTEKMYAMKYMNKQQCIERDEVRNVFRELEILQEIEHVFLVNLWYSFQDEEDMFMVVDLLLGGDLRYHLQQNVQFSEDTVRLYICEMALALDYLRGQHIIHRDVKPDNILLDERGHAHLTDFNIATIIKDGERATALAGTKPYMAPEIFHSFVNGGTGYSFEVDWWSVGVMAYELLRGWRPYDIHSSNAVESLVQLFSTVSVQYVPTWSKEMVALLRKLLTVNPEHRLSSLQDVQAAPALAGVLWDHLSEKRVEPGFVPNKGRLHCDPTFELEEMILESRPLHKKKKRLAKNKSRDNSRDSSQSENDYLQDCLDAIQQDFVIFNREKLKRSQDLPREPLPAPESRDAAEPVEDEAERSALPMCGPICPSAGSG
# EPHA4, sequence (P54764 whole entry): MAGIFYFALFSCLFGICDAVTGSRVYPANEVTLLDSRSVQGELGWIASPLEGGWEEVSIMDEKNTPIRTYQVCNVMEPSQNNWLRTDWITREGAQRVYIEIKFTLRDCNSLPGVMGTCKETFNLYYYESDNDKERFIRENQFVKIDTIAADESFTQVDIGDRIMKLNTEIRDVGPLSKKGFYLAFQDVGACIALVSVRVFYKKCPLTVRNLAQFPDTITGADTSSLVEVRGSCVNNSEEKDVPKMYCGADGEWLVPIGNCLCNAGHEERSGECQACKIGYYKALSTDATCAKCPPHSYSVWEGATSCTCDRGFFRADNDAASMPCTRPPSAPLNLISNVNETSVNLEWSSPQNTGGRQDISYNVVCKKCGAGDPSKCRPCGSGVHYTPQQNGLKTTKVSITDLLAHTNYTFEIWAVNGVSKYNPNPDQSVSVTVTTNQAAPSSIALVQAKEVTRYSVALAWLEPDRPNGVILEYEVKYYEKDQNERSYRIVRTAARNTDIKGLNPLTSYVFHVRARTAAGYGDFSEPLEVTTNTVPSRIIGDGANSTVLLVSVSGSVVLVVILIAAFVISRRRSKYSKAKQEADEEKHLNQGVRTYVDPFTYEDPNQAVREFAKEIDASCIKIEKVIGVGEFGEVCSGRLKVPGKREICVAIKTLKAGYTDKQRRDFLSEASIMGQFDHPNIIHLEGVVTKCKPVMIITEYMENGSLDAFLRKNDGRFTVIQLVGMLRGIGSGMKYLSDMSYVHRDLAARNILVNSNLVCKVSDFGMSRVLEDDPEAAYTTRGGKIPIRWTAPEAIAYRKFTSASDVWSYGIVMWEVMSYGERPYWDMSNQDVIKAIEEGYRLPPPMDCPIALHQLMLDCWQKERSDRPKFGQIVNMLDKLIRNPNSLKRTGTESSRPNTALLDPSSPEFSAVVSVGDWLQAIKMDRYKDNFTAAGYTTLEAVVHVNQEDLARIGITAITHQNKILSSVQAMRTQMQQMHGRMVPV
# T1 sequence (Q9NSY1 whole entry): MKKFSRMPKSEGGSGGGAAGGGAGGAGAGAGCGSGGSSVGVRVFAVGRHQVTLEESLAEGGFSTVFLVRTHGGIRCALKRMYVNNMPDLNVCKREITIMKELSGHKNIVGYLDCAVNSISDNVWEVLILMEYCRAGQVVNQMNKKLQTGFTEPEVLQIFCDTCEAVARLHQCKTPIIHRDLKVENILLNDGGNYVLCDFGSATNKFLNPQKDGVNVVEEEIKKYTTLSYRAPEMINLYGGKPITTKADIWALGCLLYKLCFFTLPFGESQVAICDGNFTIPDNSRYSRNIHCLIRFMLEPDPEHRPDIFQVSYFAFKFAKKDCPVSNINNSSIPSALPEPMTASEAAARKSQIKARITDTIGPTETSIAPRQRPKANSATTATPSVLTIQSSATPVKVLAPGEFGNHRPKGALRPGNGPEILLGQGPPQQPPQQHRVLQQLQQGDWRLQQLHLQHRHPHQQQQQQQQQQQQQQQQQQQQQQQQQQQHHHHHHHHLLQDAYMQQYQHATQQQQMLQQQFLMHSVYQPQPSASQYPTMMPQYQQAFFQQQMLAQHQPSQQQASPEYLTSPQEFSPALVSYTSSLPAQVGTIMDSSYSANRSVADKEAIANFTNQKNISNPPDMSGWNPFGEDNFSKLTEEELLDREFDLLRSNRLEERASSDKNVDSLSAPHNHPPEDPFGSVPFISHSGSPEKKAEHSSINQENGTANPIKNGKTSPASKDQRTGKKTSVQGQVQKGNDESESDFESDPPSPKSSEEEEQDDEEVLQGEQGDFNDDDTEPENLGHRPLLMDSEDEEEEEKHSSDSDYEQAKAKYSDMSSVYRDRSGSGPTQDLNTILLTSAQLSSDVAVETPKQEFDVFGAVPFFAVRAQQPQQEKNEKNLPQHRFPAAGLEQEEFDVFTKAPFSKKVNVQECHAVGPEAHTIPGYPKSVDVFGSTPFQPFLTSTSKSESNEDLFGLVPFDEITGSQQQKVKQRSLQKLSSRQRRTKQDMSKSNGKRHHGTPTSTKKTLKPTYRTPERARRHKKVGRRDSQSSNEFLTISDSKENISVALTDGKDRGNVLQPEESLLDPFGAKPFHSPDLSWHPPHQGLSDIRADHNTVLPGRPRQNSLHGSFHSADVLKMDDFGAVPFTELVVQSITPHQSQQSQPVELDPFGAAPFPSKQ
# SRPK3, sequence (Q9UPE1 whole entry): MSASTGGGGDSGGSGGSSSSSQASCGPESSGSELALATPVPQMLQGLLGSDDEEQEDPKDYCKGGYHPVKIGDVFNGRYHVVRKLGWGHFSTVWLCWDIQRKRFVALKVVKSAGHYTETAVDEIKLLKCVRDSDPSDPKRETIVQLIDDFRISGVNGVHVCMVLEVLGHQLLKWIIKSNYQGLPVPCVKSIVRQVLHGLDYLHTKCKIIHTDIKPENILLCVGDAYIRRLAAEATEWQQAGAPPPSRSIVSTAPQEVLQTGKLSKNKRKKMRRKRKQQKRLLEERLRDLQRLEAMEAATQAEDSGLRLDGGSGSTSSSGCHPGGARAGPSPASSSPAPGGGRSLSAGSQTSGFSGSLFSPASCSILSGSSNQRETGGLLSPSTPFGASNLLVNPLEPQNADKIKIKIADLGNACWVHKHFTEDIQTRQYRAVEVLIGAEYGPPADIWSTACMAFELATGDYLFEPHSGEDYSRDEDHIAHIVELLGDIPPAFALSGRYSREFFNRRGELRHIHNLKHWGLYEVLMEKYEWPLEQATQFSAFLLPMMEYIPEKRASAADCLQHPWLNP
smiles,measurement,setting,value
Cn1ncnc1[C@H]1c2n[nH]c(=O)c3cc(F)cc(c23)N[C@@H]1c1ccc(F)cc1 [Talazoparib],percent of control binding at 10 µM,BIKE; [2],93%
same,percent of control binding at 10 µM,EPHA4; [2],100%
same,percent of control binding at 10 µM,YANK3; [2],85%
same,percent of control binding at 10 µM,EGFR(T790M); [2],65%
same,percent of control binding at 10 µM,SRPK3; [2],100%
same,percent of control binding at 10 µM,CIT; [2],98%
same,percent of control binding at 10 µM,RIPK4; [2],69%
same,percent of control binding at 10 µM,FLT3(R834Q); [2],100%
same,percent of control binding at 10 µM,PIKFYVE; [2],80%
same,percent of control binding at 10 µM,[1]; [2],100%
same,percent of control binding at 10 µM,ALK(L1196M); [2],100%
O=C(c1cc(Cc2n[nH]c(=O)c3ccccc23)ccc1F)N1CCN(C(=O)C2CC2)CC1 [Olaparib],percent of control binding at 10 µM,BIKE; [3],100%
same,percent of control binding at 10 µM,EPHA4; [3],92%
same,percent of control binding at 10 µM,YANK3; [3],83%
same,percent of control binding at 10 µM,EGFR(T790M); [3],84%
same,percent of control binding at 10 µM,SRPK3; [3],84%
same,percent of control binding at 10 µM,CIT; [3],87%
same,percent of control binding at 10 µM,RIPK4; [3],81%
same,percent of control binding at 10 µM,FLT3(R834Q); [3],79%
same,percent of control binding at 10 µM,PIKFYVE; [3],100%
same,percent of control binding at 10 µM,[1]; [3],76%
same,percent of control binding at 10 µM,ALK(L1196M); [3],83%
NC(=O)c1cccc2cn(-c3ccc([C@@H]4CCCNC4)cc3)nc12 [Niraparib],percent of control binding at 10 µM,BIKE; [4],81%
same,percent of control binding at 10 µM,EPHA4; [4],83%
same,percent of control binding at 10 µM,YANK3; [4],86%
same,percent of control binding at 10 µM,EGFR(T790M); [4],93%
same,percent of control binding at 10 µM,SRPK3; [4],71%
same,percent of control binding at 10 µM,CIT; [4],10%
same,percent of control binding at 10 µM,RIPK4; [4],81%
same,percent of control binding at 10 µM,FLT3(R834Q); [4],100%
same,percent of control binding at 10 µM,PIKFYVE; [4],75%
same,percent of control binding at 10 µM,[1]; [4],93%
same,percent of control binding at 10 µM,ALK(L1196M); [4],81%
CNCc1ccc(-c2[nH]c3cc(F)cc4c3c2CCNC4=O)cc1 [Rucaparib],percent of control binding at 10 µM,BIKE; [5],72%
same,percent of control binding at 10 µM,EPHA4; [5],97%
same,percent of control binding at 10 µM,YANK3; [5],72%
same,percent of control binding at 10 µM,EGFR(T790M); [5],75%
same,percent of control binding at 10 µM,SRPK3; [5],85%
same,percent of control binding at 10 µM,CIT; [5],4.8%
same,percent of control binding at 10 µM,RIPK4; [5],75%
same,Rucaparib / %Ctrl @ 10000nM,"FLT3(R834Q); binding competition, % of control",81%
same,percent of control binding at 10 µM,PIKFYVE; [5],92%
same,percent of control binding at 10 µM,[1]; [5],70%
same,percent of control binding at 10 µM,ALK(L1196M); [5],83%
